Ends that are not written are not given here.
Tests used:
[1] = system: T-type channels in small TG neurons; assay: Whole-cell patch clamp of T-type channel currents (IT) in small TG neurons; assay type: cell-based, mouse; conditions: for inhibition of IT: 0.5 mM
small TG neurons = assay: TG neuronal excitability (action potential firing, rheobase, threshold); assay type: cell-based, mouse
Method: All the procedures performed in this study were carried out in accordance with NIH guidelines and were approved by the Institutional Animal Care and Use Committee of Soochow University. TG neurons were dissociated as previously described, [23]. Briefly, TGs were harvested from 8- to 10-week-old ICR mice of either sex, cut into small pieces and treated with 2 mg/mL collagenase D (Roche) for 20 min followed by 1.5 mg/mL trypsin (Sigma) at 37 °C for 15 min. Cells were dissociated via gentle trituration with fire-polished sterilized Pasteur pipettes and centrifuged through a 15% BSA gradient to remove debris and nonneuronal cells. TG neurons were resuspended in neurobasal A (Thermo Fisher) supplemented with B27 (Thermo Fisher) and transferred onto Matrigel-coated coverslips. Patch clamp recordings were conducted 2 to 6 h after plating. In shRNA-treated knockdown experiments, TG cells were replated onto coverslips 48 h after infection.
(§1) Standard whole-cell recordings were made at room temperature (22-23 °C) as described previously, [25]. Recording electrodes were pulled from borosilicate glass microcapillary tubes (Sutter Instruments) and had resistances from 3 to 5 MΩ when filled with internal solution. Recordings were obtained using a MultiClamp 700B amplifier (Axon Instruments). Data were digitized on a personal computer using a Digidata 1440 interface under the control of the pClamp10.2 acquisition package (Molecular Devices). Data were acquired at 20 kHz with a low-pass Bessel filter at 2-5 kHz. Series resistance was compensated to 80%. The internal solution used for T-type channel current recordings contained 110 mM CsCl, 4 mM Mg-ATP, 0.3 mM Na2-GTP, 25 mM HEPES, and 10 mM EGTA, adjusted to pH 7.4 with CsOH; 295 mOsm. The external solution used for T-type channel current recordings contained 5 mM BaCl2, 140 mM TEA-Cl, 10 mM HEPES, 0.5 mM MgCl2, 5 mM CsCl, and 5.5 mM glucose, adjusted to pH 7.35 with TEA-OH; 305 mOsm. In experiments for Kv current recordings, the extracellular solution contained 140 mM choline-Cl, 1 mM MgCl2, 0.03 mM CaCl2, 5 mM KCl, 10 mM HEPES, and 10 mM glucose, adjusted to pH 7.4 with KOH; 310 mOsm. The intracellular pipette solution contained 140 mM KCl, 1 mM MgCl2, 0.5 mM CaCl2, 3 mM Mg-ATP, 0.3 mM Na2-GTP, 10 mM HEPES, and 5 mM EGTA, adjusted to pH 7.4 with KOH; 295 mOsm. The two kinetically distinct Kv currents in small TG neurons were separated by the two-step voltage protocol as previously described, [26]. The external solution for Nav current clamp recordings contained 2 mM KCl, 2 mM MgCl2, 25 mM HEPES, 2 mM CaCl2, 128 mM NaCl, and 30 mM glucose, adjusted to pH 7.4 with NaOH; 305 mOsm. The internal solution contained 10 mM NaCl, 110 mM KCl, 4 mM Mg-ATP, 0.3 mM Na2-GTP, 25 mM HEPES, and 2 mM EGTA, adjusted to pH 7.3 with KOH; 295 mOsm. Nmb was applied to a patched cell by an air-pressure microinjector (Pneumatic PicoPump, model PV830, WPI).
We next determined the role of the Nmb-induced T-type channel response in regulating TG neuronal excitability. […] Furthermore, application of Nmb (100 nM) to TG neurons decreased the peak amplitude of the transient outward K^+ channel currents (A-type currents or IA) (decrease of 22.3 ± 3.9%; Figure 6C), while the sustained delayed rectifier K^+ channel currents (IDR) remained unaffected (decrease of 1.9 ± 1.6%; Figure 6C). […] To further test this hypothesis, a shorter (1 ms) current injection was applied to avoid contaminating the action potential waveform with the stimulus. Neurons were manually hyperpolarized to membrane potentials of -75 mV to maximize the number of T-type channels available for activation. With increasingly stronger current injections (+200 pA), the threshold current necessary to evoke an overshooting AP was determined for each neuron in the presence or absence of Nmb.

T-type channels = conditions: cited from earlier work; for IT inhibition: dopamine in retinal horizontal cells, adrenaline in newt olfactory receptor cells, prevented by PKA inhibitors, ref [56]; for current density of IT: via PKC, insulin-like growth factor in dorsal root ganglion neurons, angiotensin-II in neonatal cardiomyocytes, ref [28], [60]
Text: In contrast, stimulation of PKC either by insulin-like growth factor in dorsal root ganglion neurons or by angiote ...

Cav3.2 (α1H) = assay: Cav3.2 channel currents in HEK293 cells coexpressing NmbR; assay type: cell-based, human
Method: as §1, with “mOsm.” for “mOsm. The two kinetically distinct Kv currents in small TG neurons were separated by the two-step voltage protocol as previously described, [26]. The external solution for Nav current clamp recordings contained 2 mM KCl, 2 mM MgCl2, 25 mM HEPES, 2 mM CaCl2, 128 mM NaCl, and 30 mM glucose, adjusted to pH 7.4 with NaOH; 305 mOsm. The internal solution contained 10 mM NaCl, 110 mM KCl, 4 mM Mg-ATP, 0.3 mM Na2-GTP, 25 mM HEPES, and 2 mM EGTA, adjusted to pH 7.3 with KOH; 295 mOsm. Nmb was applied to a patched cell by an air-pressure microinjector (Pneumatic PicoPump, model PV830, WPI).”

PKA = PKA activity assay in TG cells (Pep Tag); assay type: cell-based, mouse; conditions: pretreatment 10 µM compound C, 100 nM Nmb 30 min
Method: PKA enzymatic activity in cell lysates was measured using the Pep Tag assay for nonradioactive detection of PKA (Promega, Madison, WI, USA) as described in our previous studies. Briefly, TG cells were cultured in 12-well plates and preincubated with BIM23042 (0.5 μM) or compound C (10 μM) followed by exposure to 100 nM Nmb for 30 min. TG cells were washed with ice-cold phosphate-buffered saline and placed on ice. PKA was extracted from the cell lysates with cold PKA extraction buffer (25 mM Tris-HCl, pH 7.4, 0.5 mM EDTA, 0.5 mM EGTA, 10 mM β-mercaptoethanol, 1 μg/mL leupeptin and 1 μg/mL aprotinin). The assay was conducted according to the manufacturer's instructions.

Q: Which “Nmb-induced increase in IT with GDP-β-S” value ([1]; 1 mM intracellular GDP-β-S, 100 nM Nmb, n = 6) does the source give for `Nc1nc2c(ncn2[C@@H]2O[C@H](COP(=O)(O)OP(O)(O)=S)[C@@H](O)[C@H]2O)c(=O)[nH]1` [GDP-β-S] here?
A: The value was 2.3 ± 2.7%.

Q: For `[Cl][Ni][Cl]` [NiCl2], which “decrease of the remaining inward current (IT)” value ([1]; 50 μM, -110 mV Vh to -40 mV, 22-23 °C, n = 5) is on record?
A: Its value is 79.2%.

Q: And the “inhibition of IT at the end of recording after Nmb” value ([1]; 0.5 mM NiCl2 added at end of recording after 100 nM Nmb)?
A: Its value is “almost abrogated the IT”.

Q: And the “inhibition of IT” value ([1]; n = 5)?
A: The value was “almost completely abolished”.

Q: What about the “inhibition of IT” value ([1]; n = 5, listed as Ni^2+) of the same compound?
A: Its value is “completely blocked IT”.

Q: And the “effect on Nmb-induced decrease in AP threshold” value (small TG neurons; preincubation 50 µM NiCl2, 100 nM Nmb, n = 9)?
A: Its value is “completely prevented”.

Q: And the “effect on Nmb-mediated increase in AP firing rate / hyperexcitability” value (small TG neurons; pretreatment KT-5720 1 µM (n = 12) or NiCl2 50 μM (n = 11), 100 nM Nmb)?
A: The value was “completely abolish”.

Q: With `CCCCCCCCCCCCCC(=O)O[C@@H]1[C@@H](C)[C@@]2(O)[C@@H](C=C(CO)C[C@]3(O)C(=O)C(C)=C[C@@H]23)[C@@H]2C(C)(C)[C@]12OC(C)=O` [PMA, phorbol 12-myristate 13-acetate] as the compound, how does the “effect of PMA on IT” value ([1]; 5 μM, n = 7) read?
A: Its value is “increase in IT”.

Q: With `COc1ccc2c(c1)CC[C@@H]1[C@@H]2CC[C@]2(C)[C@@H](NCCCCCCN3C(=O)C=CC3=O)CC[C@@H]12` [U73122] as the compound, how does the “Nmb-induced increase in IT after U73122” value ([1]; pretreatment 3 μM U73122 (legend: 1 μM), 100 nM Nmb, n = 8) read?
A: Its value is 31.8 ± 4.2%.

Q: With `CNC[C@H](O)c1ccc(O)c(O)c1` [adrenaline] as the compound, how does the IT inhibition (T-type channels) read?
A: Its IT inhibition is “IT inhibition”.

Q: Which “Nmb-induced increase in IT after compound C” value ([1]; preincubation 10 µM compound C, 100 nM Nmb, n = 7) does the source give for `c1cc(-c2cnn3cc(-c4ccc(OCCN5CCCCC5)cc4)cnc23)ccn1` [compound C] here?
A: Its value is 2.6 ± 2.8%.

Q: And the “Nmb-induced increase of Cav3.2 currents after compound C” value (Cav3.2 (α1H); pretreatment 10 µM compound C, 100 nM Nmb, n = 8)?
A: Its value is 1.4 ± 2.9%.

Q: What about the “effect on Nmb-induced increase in PKA activity” value (PKA) of the same compound?
A: The value was “abrogated”.

Q: With `NCCc1ccc(O)c(O)c1` [dopamine] as the compound, how does the IT inhibition (T-type channels) read?
A: Its IT inhibition is “IT inhibition”.

Q: Which “increase of IT by forskolin” value ([1]; 10 μM, n = 7) does the source give for `C=C[C@@]1(C)CC(=O)[C@]2(O)[C@@]3(C)[C@@H](O)CCC(C)(C)[C@@H]3[C@H](O)[C@H](OC(C)=O)[C@@]2(C)O1` [forskolin] here?
A: Its value is 38.3 ± 2.1%.

Q: Which “effect on PMA-induced increase in IT” value ([1]; 10 μM PKC 19-36, 5 μM PMA, n = 5) does the source give for “PKC 19-36: a pseudosubstrate peptide inhibitor of PKC (RFARKGALRQKNVHEVKD; UniProt P17252 19-36, looked up, fragment)” here?
A: The value was “abrogated the increase in IT”.

Q: What about the “Nmb-induced increase in IT with PKC 19-36” value ([1]; dialysis 10 µM PKC 19-36, 100 nM Nmb, n = 7) of the same compound?
A: Its value is 31.5 ± 3.5%.

Q: And the “Nmb-induced increase of Cav3.2 currents with PKC 19-36” value (Cav3.2 (α1H); dialysis 10 μM PKC 19-36, 100 nM Nmb, n = 9)?
A: The value was 30.8 ± 2.3%.

Q: Which “Nmb-induced increase in IT with QEHA” value ([1]; dialysis 10 μM QEHA, 100 nM Nmb, n = 6) does the source give for “QEHAQEPERQYMHIGTMVEFAYALVGK [Gβγ antagonist QEHA peptide]” here?
A: The value was 3.2 ± 2.5%.

Q: Which “Nmb-induced increase in IT with SKEE” value ([1]; intracellular 10 μM SKEE, 100 nM Nmb, n = 7) does the source give for “SKEEKSDKER WQHLADLADFALAMKDT [the scrambled peptide of QEHA]” here?
A: Its value is 33.2 ± 3.5%.

Q: Which “current density of IT” value (T-type channels) does the source give for “angiotensin-II: angiotensin-II in neonatal cardiomyocytes (DRVYIHPF; Angiotensin-2; UniProt P01019 25-32, looked up)” here?
A: Its value is “significantly increases the current density”.

Q: For cholera toxin, which “Nmb-induced increase in IT after cholera toxin (Gs)” value [1] is on record?
A: The value was 33.5 ± 2.9%.

Q: For “corticotrophin-releasing factor: T-type channel inhibition induced by corticotrophin-releasing factor (SEEPPISLDLTFHLLREVLEMARAEQLAQQAHSNRKLMEII; ends and bridges not checked; UniProt P06850 154-194, looked up)”, which T-type channel inhibition (T-type channels; MN9D dopaminergic cells, prevented by PKC inhibitors, ref [59]) is on record?
A: The T-type channel inhibition was “T-type channel inhibition”.

Q: With insulin-like growth factor as the compound, how does the “current density of IT” value (T-type channels) read?
A: Its value is “significantly increases the current density”.
